The source of these data is US9487489B2, “Halogen-substituted pyrazole derivatives as pest-control agents” (BAYER CROPSCIENCE AKTIENGESELLSCHAFT, priority 2013, dated 2016).

For data set [1], the system named is larvae of the mustard beetle (Phaedon cochleariae). The experiment in a line: Phaedon cochleariae spray test (PHAECO). The settings on record: Chinese cabbage leaf discs, after 7 days. In kind it is in vivo. In short, it runs like this:
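Kill of mustard beetle larvae is read as % mortality 7 days after spraying. Spray liquid: active compound in acetone plus dimethylformamide, brought up with water holding 1000 ppm alkylaryl polyglycol ether emulsifier and diluted further in emulsifier-water.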

Data set [2] has as its system engorged adult female cattle ticks (Boophilus microplus). The experiment in a line: Boophilus microplus injection test (BOOPMI Inj). In kind it is in vivo. The following applies: application rate 20 μg/animal; injection into abdomen; assessed after 7 days. As for the experimental part: C. Boophilus microplus-injection Test (BOOPMI Inj)
(§1) Solvent: dimethyl sulphoxide
To produce a suitable preparation of active compound, 10 mg of active compound are mixed with 0.5 ml of solvent, and the concentrate is diluted with solvent to the desired concentration.
1 μl of the active compound solution is injected into the abdomen of 5 engorged adult female cattle ticks (Boophilus microplus). The animals are transferred into dishes and kept in a climate-controlled room.
The activity is assessed after 7 days by laying of fertile eggs. Eggs whose fertility is not visible from the outside are stored in a climate-controlled cabinet until the larvae hatch after about 42 days. An efficacy of 100% means that none of the ticks has laid any fertile eggs; 0% means that all eggs are fertile.

The test system of data set [3] is adult houseflies (Musca domestica). In words: Musca domestica test (MUSCDO). It is filed as in vivo. The settings on record: application rate 100 ppm; after 2 days. As for the experimental part:
F. Musca domestica Test (MUSCDO)
as §1
(§2) To produce a suitable preparation of active compound, 10 mg of active compound are mixed with 0.5 ml of dimethyl sulphoxide, and the concentrate is diluted with water to the desired concentration.
Vessels containing a sponge treated with sugar solution and the active compound preparation of the desired concentration are populated with 10 adult houseflies (Musca domestica).
After 2 days, the kill in % is determined. 100% means that all of the flies have been killed; 0% means that none of the flies have been killed.

In data set [4] the test system is caterpillars of the armyworm (Spodoptera frugiperda). The experiment in a line: Spodoptera frugiperda spray test (SPODFR). In kind it is in vivo. The settings on record: maize leaf discs, after 7 days. In short, it runs like this: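 Percent kill read at day 7 on caterpillar-infested maize leaf discs. Discs were first sprayed with aqueous emulsifier-containing (1000 ppm) preparations made from acetone/dimethylformamide solutions, and dried. Scale: 0% none dead, 100% all dead.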

Data set [5] relates to L1 larvae of the Australian sheep blowfly (Lucilia cuprina). The experiment in a line: Lucilia cuprina test (LUCICU). The following applies: application rate 100 ppm; after 2 days. In kind it is in vivo. How it is done: E. Lucilia cuprina Test (LUCICU)
as §1, §2
About 20 L1 larvae of the Australian sheep blowfly (Lucilia cuprina) are transferred into a test vessel containing minced horsemeat and the active compound preparation of the desired concentration.
After 2 days, the kill in % is determined 100% means that all of the larvae have been killed; 0% means that none of the larvae have been killed.

Data set [6] deals with adult cat fleas (Ctenocephalides felis). In words: Ctenocephalides felis oral test (CTECFE). The following applies: application rate 100 ppm in citrated cattle blood; after 2 days. It is filed as in vivo. As for the experimental part:
D. Ctenocephalides felis-oral Test (CTECFE)
as §1
To produce a suitable preparation of active compound, 10 mg of active compound are mixed with 0.5 ml of dimethyl sulphoxide. Dilution with citrated cattle blood gives the desired concentration.
About 20 unfed adult cat fleas (Ctenocephalides felis) are placed into a chamber which is closed at the top and bottom with gauze. A metal cylinder whose bottom end is closed with a parafilm is placed onto the chamber. The cylinder contains the blood/active ingredient preparation, which can be imbibed by the fleas through the parafilm membrane.
After 2 days, the kill in % is determined 100% means that all of the fleas have been killed; 0% means that none of the fleas have been killed.

Data set [7] relates to adult dog ticks (Rhipicephalus sanguineus). In words: Rhipicephalus sanguineus in vitro contact test with adult brown dog ticks (T2). The following applies: after 48 h. As for the experimental part: T2. Rhipicephalus sanguineus-in vitro Contact Tests with Adult Brown Dog Ticks
For the coating of the test tubes, initially 9 mg of active compound are dissolved in 1 ml of acetone p.a. and then diluted with acetone p.a. to the desired concentration. By turning and rocking on an orbital shaker (2 h of rocking rotation at 30 rpm), 250 μl of the solution are distributed homogeneously on the internal walls and the floor of a 25 ml test tube. At 900 ppm active compound solution and 44.7 cm^2 internal surface, an area dose of 5 μg/cm^2 is achieved for homogeneous distribution.
After evaporation of the solvent, the tubes are populated with 5-10 adult dog ticks (Rhipicephalus sanguineus), sealed with a perforated plastic lid and incubated in a horizontal position in the dark at room temperature and ambient humidity. After 48 h, the efficacy is determined. To this end, the ticks are knocked to the floor of the tube and incubated on a hotplate at 45-50° C. for at most 5 min Ticks which remain motionless on the floor or move in an uncoordinated manner such that they are not able to deliberately avoid the heat by climbing upwards are considered to be dead or moribund.
An efficacy of 100% means that all ticks were dead or moribund. 0% efficacy means that none of the ticks had been damaged.

Data set [8] can be described thus: logP determination by HPLC on a reversed-phase column (C18), EEC Directive 79/831 Annex V.A8. In kind it is physicochemical. In short, it runs like this:
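Per EEC 79/831 Annex V.A8, values derive from HPLC retention at 2.0 ml/min and 55° C on a 50*4.6 C18 column. The 10→95% acetonitrile gradient (0.1%/0.09% formic acid) lasted 4.25 min plus a 1.25 min hold; mass detection was by MSD.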

The subject of data set [9] is greenhouse red spider mite (Tetranychus urticae). In words: Tetranychus urticae spray test, OP-resistant (TETRUR). In kind it is in vivo. The settings on record: application rate 100 g/ha; bean leaf discs; after 6 days. In short, it runs like this:
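Percent kill, scored 6 days post-spray (0% = none dead, 100% = all dead), on Phaseolus vulgaris leaf discs infested with every life stage of the OP-resistant spider mite. Compound dissolved in acetone plus DMF, diluted to test concentration with emulsifier-containing water (1000 ppm).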

The mark [10] stands for this setting: HPLC on reversed-phase column (C18), acetonitrile/water with formic acid, EEC Directive 79/831 Annex V.A8.

Turning to `COc1cc(C(=O)NC2CC2)cc(-c2cnn(-c3c(C(F)(F)F)c(C(F)(F)C(F)(F)F)nn3C)c2)c1` [Ic-62], the efficacy in % in [1] (application rate 500 g/ha) and in [4] (application rate 500 g/ha) was 100% in each case. Further, the “efficacy (laying of fertile eggs)” value in data set [2] turned out to be 100%. Besides, the figures for the “efficacy (kill in %)” value in data set [3], in data set [5] and in data set [6] were 100%, 100% and 95%, respectively.

For the compound `Cc1ccc(C(=O)NC2(C#N)CC2)cc1-c1cnn(-c2c(C(F)(F)F)c(C(F)(F)C(F)(F)F)nn2C)c1` [Ic-58], in data set [1] (application rate 500 g/ha), the efficacy in % was 100%. Besides, the “efficacy (laying of fertile eggs)” value in [2] is on record as 100%. In addition, the results for the “efficacy (kill in %)” value in data set [3], in data set [5] and in data set [6] were 80%, 100% and 100%, respectively.

In data set [1] (application rate 500 g/ha), `Cc1cc(C(=O)NC2CC2)cc(-c2cnn(-c3c(C(F)(F)F)c(C(F)(F)C(F)(F)F)nn3C)c2)c1` [Ic-54] returned an efficacy in % of 100%. In addition, the “efficacy (laying of fertile eggs)” value in [2] worked out at 100%. The “efficacy (dead or moribund ticks)” value in data set [7] (application rate 1 μg/cm^2) and in [7] (application rate 5 μg/cm^2) was 100% in each case. The “efficacy (kill in %)” value in [5] and in data set [6] was 100% each time.

Regarding `Cn1nc(C(F)(F)C(F)(F)F)c(C(F)(F)F)c1-n1cc(-c2cc(C(=O)NC3(C#N)CC3)ccc2Cl)cn1` [Ic-45], the efficacy in % in [1] (application rate 500 g/ha) and in data set [4] (application rate 500 g/ha) was 100% throughout. Also, the “efficacy (kill in %)” value in [3], in data set [5] and in data set [6] was 100% each time.

The compound `O=C(NC1CC1)c1cc(-c2cnn(-c3c(C(F)(F)F)c(C(F)(F)C(F)(F)F)nn3-c3ccccc3)c2)ccc1Cl` [Ic-6] displayed a logP in [8] (setting [10]) of 4.54. In addition, the efficacy in % in data set [1] (application rate 100 g/ha) and in data set [4] (application rate 100 g/ha) was 100% each time. Also, the “efficacy (laying of fertile eggs)” value in data set [2] is 100%. Further, the “efficacy (kill in %)” value in data set [3] was found to be 90%; in data set [5], 100%; in data set [6] it was 100%.

As to `Cn1nc(C(F)(F)C(F)(F)F)c(C(F)(F)F)c1-n1cc(-c2cc(C(=O)NC3(C#N)CC3)cc(C(F)(F)F)c2)cn1` [Ic-60], the efficacy in % in data set [1] (application rate 500 g/ha) and in data set [4] (application rate 500 g/ha) was 100% each time. In data set [2], the “efficacy (laying of fertile eggs)” value is listed as 100%. Moreover, the “efficacy (kill in %)” value in data set [3], in data set [5] and in data set [6] was 100% throughout.

In [8] (setting [10]), `Cn1nc(C(F)(F)C(F)(F)F)c(C(F)(F)F)c1-n1cc(-c2ccc(Cl)c(C(=O)NCc3cccs3)c2)cn1` [Ic-10] registered a lipophilicity (logP) of 4.40. Also, the efficacy in % in data set [1] (application rate 100 g/ha), in data set [9] and in [4] (application rate 100 g/ha) was 100% each time. In [2], the “efficacy (laying of fertile eggs)” value is given as 100%. Further, the “efficacy (kill in %)” value in data set [5] amounted to 100%; in [6], 98%.

The compound `Cn1nc(C(F)(F)C(F)(F)F)c(C(F)(F)F)c1-n1cc(-c2cccc(C(=O)NCc3cccs3)c2)cn1` [Ic-20] came in with a logP in [8] (setting [10]) of 4.20. The efficacy in % in data set [1] (application rate 100 g/ha), in data set [9] and in [4] (application rate 100 g/ha) was 100% each time. In addition, in data set [2], the “efficacy (laying of fertile eggs)” value stood at 100%. The “efficacy (kill in %)” value in data set [5] and in data set [6] was 100% each time.

Regarding `Cn1nc(C(F)(F)C(F)(F)F)c(C(F)(F)F)c1-n1cc(-c2cccc(C(=O)NC3CC3)c2F)cn1` [Ic-33], the figures for the efficacy in % in [1] (application rate 500 g/ha) and in [4] (application rate 500 g/ha) were 100% and 83%, respectively. Further, in data set [2], the “efficacy (laying of fertile eggs)” value was 100%. For the same compound, the “efficacy (kill in %)” value in data set [3], in data set [5] and in data set [6] was 100% in each case.

`Cc1ccc(C(=O)NC2CC2)cc1-c1cnn(-c2c(C(F)(F)F)c(C(F)(F)C(F)(F)F)nn2C)c1` [Ic-57] returned an efficacy in % in [1] (application rate 100 g/ha) of 83%. The “efficacy (kill in %)” value in data set [3], in [5] and in data set [6] was 100% in each case.

Turning to `Cn1nc(C(F)(F)C(F)(F)F)c(C(F)(F)F)c1-n1cc(-c2cc(F)cc(C(=O)NC3(C#N)CC3)c2)cn1` [Ic-38], the efficacy in % in data set [1] (application rate 500 g/ha) and in data set [4] (application rate 500 g/ha) was 100% in each case. Moreover, the “efficacy (laying of fertile eggs)” value in data set [2] was determined as 100%. For the same compound, the “efficacy (kill in %)” value in [3], in data set [5] and in data set [6] was 100% throughout.

Consider `N#CC1(NC(=O)c2cc(-c3cnn(-c4c(C(F)(F)F)c(C(F)(F)C(F)(F)F)nn4-c4ccccc4)c3)ccc2Cl)CC1` [Ic-7], for which the log partition coefficient (logP) in data set [8] (setting [10]) worked out at 4.43. Also, the efficacy in % in data set [1] (application rate 100 g/ha) and in [4] (application rate 100 g/ha) was 100% each time. The “efficacy (laying of fertile eggs)” value in data set [2] was determined as 100%. The “efficacy (kill in %)” value in [3], in [5] and in data set [6] was 100% throughout.

In data set [8] (HPLC, reversed-phase C18, acetonitrile (0.1% formic acid)/water (0.09% formic acid) gradient), `Cn1nc(C(F)(F)C(F)(F)F)c(C(F)(F)F)c1-n1ccc(-c2ccc(Cl)c(C(=O)NC3(C#N)CC3)c2)n1` [Id-1] yielded a lipophilicity (logP) of 3.87. Also, the efficacy in % in data set [1] (application rate 100 g/ha) and in data set [4] (application rate 100 g/ha) was 100% each time. In addition, the “efficacy (laying of fertile eggs)” value in [2] is listed as 100%. In addition, the “efficacy (kill in %)” value in [3], in [5] and in [6] was 100% in each case.

On to `Cn1nc(C(F)(F)C(F)(F)F)c(C(F)(F)F)c1-n1cc(-c2ccc(Cl)c(C(=O)Nc3ccncc3)c2)cn1` [Ic-22], for which the logP in data set [8] (setting [10]) was found to be 2.38. In addition, the efficacy in % in data set [1] (application rate 100 g/ha), in data set [9] and in [4] (application rate 100 g/ha) was 100% in each case. The “efficacy (laying of fertile eggs)” value in data set [2] turned out to be 100%. For the same compound, the “efficacy (kill in %)” value in data set [5] and in [6] was 100% throughout.
